Results published in ChEMBL document CHEMBL1150976, “The selectivity of protein kinase inhibitors: a further update” (Biochem J, 2007).

Columns and labels:
[1] = biological target: Serine/threonine-protein kinase pim-2 (Homo sapiens, UniProt Q9P1W9); test: Percentage PIM2 activity remaining in the presence of 3uM inhibitor
[2] = biological target: T1, Serine/threonine-protein kinase D1 (Homo sapiens) (UniProt Q15139); test: Percentage PKD1 activity remaining in the presence of 3uM inhibitor
T1 sequence (whole entry): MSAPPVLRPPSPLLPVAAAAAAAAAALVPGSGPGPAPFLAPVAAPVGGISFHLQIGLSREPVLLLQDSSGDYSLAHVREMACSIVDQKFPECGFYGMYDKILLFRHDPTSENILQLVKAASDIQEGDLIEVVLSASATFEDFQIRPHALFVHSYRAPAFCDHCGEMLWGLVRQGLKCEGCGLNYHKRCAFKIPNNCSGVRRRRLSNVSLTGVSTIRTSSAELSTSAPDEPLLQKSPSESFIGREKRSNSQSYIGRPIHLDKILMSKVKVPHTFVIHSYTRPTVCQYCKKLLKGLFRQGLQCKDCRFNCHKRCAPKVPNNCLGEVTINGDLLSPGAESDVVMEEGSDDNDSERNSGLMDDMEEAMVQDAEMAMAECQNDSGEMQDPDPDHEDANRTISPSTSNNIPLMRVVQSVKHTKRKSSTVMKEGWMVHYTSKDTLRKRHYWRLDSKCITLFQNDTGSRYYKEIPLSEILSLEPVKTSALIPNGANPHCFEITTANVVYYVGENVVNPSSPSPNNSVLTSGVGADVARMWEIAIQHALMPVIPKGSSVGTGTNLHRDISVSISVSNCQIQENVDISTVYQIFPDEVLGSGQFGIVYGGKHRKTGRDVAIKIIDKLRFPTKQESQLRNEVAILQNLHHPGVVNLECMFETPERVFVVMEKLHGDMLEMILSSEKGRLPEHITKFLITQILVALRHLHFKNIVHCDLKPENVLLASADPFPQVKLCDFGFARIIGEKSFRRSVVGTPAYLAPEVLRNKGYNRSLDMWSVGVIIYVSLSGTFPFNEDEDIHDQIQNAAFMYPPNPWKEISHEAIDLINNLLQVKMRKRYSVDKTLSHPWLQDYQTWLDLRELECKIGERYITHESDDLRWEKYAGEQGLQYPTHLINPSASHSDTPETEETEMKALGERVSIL

[3] = biological target: Rho-associated protein kinase 2 (Homo sapiens) (UniProt O75116); test: Percentage ROCK2 activity remaining in the presence of 3uM inhibitor
Sequence of Rho-associated protein kinase 2 (Homo sapiens) (O75116 whole entry, looked up): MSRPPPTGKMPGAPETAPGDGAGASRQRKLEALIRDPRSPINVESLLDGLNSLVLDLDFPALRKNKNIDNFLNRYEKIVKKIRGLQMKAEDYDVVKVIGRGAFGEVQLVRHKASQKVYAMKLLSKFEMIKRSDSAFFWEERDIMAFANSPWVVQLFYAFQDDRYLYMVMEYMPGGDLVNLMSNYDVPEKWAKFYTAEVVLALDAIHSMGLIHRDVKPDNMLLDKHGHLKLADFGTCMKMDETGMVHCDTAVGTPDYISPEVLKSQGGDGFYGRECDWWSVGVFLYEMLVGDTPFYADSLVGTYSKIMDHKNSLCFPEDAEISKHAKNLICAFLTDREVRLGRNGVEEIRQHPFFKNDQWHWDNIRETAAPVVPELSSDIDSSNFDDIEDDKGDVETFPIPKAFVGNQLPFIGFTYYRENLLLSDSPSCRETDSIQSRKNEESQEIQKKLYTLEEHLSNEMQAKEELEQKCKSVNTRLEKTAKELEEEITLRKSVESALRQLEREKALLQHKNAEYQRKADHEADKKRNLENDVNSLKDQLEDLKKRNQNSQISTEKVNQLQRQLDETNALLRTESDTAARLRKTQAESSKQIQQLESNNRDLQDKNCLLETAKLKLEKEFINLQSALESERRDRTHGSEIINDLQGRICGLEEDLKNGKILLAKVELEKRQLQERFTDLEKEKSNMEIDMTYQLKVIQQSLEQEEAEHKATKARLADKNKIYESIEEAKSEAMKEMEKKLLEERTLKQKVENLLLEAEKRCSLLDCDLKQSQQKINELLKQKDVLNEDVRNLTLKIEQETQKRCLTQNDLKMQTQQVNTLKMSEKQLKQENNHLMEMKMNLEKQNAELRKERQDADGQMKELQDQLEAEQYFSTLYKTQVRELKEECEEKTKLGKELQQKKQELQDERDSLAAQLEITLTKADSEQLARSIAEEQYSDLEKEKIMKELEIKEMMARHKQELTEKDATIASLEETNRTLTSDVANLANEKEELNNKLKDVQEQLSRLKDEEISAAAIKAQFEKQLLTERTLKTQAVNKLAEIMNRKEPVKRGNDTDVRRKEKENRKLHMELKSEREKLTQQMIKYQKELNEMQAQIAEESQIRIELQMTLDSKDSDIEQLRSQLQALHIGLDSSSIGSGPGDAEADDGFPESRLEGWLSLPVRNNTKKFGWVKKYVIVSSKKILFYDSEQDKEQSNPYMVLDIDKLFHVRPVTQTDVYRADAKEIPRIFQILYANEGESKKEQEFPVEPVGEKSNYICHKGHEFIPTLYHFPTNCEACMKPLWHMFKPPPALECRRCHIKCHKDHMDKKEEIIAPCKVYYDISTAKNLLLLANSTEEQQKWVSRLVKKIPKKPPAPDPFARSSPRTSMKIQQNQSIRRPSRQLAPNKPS

[4] = biological target: cAMP-dependent protein kinase catalytic subunit alpha (Homo sapiens, UniProt P17612); test: Percentage PKA activity remaining in the presence of 3uM inhibitor
[5] = biological target: Ribosomal protein S6 kinase alpha-1 (Homo sapiens) (UniProt Q15418); test: Percentage RSK1 activity remaining in the presence of 3uM inhibitor
Sequence of Ribosomal protein S6 kinase alpha-1 (Homo sapiens) (Q15418 whole entry): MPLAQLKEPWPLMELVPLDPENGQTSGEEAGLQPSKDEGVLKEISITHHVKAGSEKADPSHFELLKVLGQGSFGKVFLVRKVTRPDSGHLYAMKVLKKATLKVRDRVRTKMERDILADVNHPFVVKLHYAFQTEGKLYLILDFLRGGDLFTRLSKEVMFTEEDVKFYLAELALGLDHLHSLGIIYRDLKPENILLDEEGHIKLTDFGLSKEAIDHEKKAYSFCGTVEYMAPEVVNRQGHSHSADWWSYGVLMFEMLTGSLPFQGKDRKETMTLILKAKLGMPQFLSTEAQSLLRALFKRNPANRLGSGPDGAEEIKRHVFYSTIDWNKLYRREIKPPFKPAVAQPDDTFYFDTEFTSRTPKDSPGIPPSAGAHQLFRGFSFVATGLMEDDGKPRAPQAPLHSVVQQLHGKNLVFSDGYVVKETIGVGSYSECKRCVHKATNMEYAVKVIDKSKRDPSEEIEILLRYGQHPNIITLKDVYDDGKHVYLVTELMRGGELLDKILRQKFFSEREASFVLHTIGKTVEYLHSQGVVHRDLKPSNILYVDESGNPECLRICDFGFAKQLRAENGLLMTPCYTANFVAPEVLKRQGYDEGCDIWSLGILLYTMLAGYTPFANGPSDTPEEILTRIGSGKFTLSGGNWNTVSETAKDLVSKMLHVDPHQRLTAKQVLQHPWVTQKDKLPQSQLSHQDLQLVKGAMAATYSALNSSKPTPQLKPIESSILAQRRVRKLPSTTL

[6] = biological target: T2, Dual specificity tyrosine-phosphorylation-regulated kinase 3 (Homo sapiens) (UniProt O43781); test: Percentage DYRK3 activity remaining in the presence of 3uM inhibitor
T2 sequence (whole entry): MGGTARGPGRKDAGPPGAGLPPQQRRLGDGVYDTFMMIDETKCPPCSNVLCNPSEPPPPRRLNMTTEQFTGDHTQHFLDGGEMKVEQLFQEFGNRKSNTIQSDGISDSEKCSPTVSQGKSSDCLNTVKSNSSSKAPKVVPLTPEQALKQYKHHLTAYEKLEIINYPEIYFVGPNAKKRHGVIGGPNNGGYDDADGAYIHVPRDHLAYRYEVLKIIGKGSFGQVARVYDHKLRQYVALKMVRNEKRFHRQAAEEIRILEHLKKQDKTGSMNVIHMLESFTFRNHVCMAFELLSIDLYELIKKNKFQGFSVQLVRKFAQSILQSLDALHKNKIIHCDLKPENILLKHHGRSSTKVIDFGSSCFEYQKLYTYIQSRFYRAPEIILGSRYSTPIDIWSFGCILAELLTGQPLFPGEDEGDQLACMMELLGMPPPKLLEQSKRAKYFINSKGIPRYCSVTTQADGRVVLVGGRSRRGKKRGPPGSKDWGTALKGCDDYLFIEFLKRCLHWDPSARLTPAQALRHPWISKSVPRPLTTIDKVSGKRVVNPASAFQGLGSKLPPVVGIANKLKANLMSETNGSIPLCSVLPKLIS

[7] = biological target: Mitogen-activated protein kinase 1 (Homo sapiens) (UniProt P28482); test: Percentage ERK2 activity remaining in the presence of 3uM inhibitor
Sequence of Mitogen-activated protein kinase 1 (Homo sapiens) (P28482 whole entry): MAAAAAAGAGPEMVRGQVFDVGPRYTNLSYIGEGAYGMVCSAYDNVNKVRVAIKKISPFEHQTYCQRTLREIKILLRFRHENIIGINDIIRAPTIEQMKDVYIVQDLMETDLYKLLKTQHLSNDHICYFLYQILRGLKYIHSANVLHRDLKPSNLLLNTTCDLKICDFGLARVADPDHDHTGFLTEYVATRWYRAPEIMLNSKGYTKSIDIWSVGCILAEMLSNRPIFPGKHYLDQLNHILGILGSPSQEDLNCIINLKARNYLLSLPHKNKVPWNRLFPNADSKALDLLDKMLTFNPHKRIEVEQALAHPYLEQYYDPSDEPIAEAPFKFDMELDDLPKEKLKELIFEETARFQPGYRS

[8] = biological target: Casein kinase II (Homo sapiens) (UniProt P67870+P68400+P19784); test: Percentage CK2 activity remaining in the presence of 2uM inhibitor; format: protein-complex assay
[9] = biological target: Mitogen-activated protein kinase 8 (Homo sapiens, UniProt P45983); test: Percentage JNK1 activity remaining in the presence of 2uM inhibitor
Sequence of Mitogen-activated protein kinase 8 (P45983 whole entry): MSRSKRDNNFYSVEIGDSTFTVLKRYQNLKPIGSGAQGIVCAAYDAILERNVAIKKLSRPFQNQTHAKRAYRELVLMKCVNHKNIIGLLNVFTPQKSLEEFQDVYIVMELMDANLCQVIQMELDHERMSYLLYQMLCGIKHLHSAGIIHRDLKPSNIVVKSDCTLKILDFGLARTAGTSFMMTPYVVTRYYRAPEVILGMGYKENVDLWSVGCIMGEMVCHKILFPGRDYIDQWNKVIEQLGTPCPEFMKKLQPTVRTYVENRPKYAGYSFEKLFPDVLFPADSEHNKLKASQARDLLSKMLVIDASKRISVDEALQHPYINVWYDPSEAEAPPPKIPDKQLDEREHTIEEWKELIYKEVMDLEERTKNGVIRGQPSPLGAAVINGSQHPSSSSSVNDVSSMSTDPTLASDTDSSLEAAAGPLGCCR

[10] = biological target: Dual specificity mitogen-activated protein kinase kinase 1 (Homo sapiens) (UniProt Q02750); test: Percentage MKK1 activity remaining in the presence of 2uM inhibitor
Sequence of Dual specificity mitogen-activated protein kinase kinase 1 (Homo sapiens) (Q02750 whole entry): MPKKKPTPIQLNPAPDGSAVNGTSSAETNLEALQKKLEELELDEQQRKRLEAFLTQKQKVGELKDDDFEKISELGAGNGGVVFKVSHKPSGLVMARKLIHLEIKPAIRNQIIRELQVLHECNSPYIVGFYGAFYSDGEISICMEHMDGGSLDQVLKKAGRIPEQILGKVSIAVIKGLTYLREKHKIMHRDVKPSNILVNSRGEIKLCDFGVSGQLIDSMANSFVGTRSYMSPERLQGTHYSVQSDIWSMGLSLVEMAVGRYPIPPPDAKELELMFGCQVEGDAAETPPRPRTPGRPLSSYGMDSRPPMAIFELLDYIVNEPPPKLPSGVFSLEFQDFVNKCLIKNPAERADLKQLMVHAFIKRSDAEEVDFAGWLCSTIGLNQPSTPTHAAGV

[11] = biological target: Tyrosine-protein kinase CSK (Homo sapiens, UniProt P41240); test: Percentage CSK activity remaining in the presence of 2uM inhibitor
Sequence of Tyrosine-protein kinase CSK (P41240 2-450 limits assumed): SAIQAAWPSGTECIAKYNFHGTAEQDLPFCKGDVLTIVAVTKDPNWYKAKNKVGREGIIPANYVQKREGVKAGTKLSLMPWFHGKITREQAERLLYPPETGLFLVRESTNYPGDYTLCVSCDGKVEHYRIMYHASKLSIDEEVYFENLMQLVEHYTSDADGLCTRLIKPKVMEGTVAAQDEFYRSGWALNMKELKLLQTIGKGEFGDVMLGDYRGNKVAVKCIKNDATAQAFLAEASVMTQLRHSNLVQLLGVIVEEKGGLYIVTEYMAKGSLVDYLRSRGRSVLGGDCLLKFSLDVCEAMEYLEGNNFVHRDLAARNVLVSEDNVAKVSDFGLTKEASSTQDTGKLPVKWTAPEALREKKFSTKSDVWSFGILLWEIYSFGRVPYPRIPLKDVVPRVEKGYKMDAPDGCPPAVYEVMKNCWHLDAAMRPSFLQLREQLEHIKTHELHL

[12] = biological target: T3, Dual specificity tyrosine-phosphorylation-regulated kinase 2 (Homo sapiens) (UniProt Q92630); test: Percentage DYRK2 activity remaining in the presence of 2uM inhibitor
T3 sequence (whole entry): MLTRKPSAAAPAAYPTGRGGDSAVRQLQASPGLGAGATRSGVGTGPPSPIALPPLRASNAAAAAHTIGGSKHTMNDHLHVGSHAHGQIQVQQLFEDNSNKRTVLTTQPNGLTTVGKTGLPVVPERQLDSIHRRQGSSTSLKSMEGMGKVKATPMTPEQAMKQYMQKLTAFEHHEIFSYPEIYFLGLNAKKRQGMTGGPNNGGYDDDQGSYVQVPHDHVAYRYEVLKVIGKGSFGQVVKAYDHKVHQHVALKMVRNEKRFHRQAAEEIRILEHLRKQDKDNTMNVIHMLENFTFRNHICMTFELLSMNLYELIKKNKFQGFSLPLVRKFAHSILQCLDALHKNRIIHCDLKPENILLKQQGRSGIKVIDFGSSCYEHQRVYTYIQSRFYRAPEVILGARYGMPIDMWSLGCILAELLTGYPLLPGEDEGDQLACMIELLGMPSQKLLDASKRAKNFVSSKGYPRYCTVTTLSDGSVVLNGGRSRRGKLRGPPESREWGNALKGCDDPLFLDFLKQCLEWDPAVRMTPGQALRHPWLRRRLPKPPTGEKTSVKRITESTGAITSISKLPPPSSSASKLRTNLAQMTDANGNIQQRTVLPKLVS

[13] = biological target: Mitogen-activated protein kinase 10 (Homo sapiens) (UniProt P53779); test: Percentage JNK3 activity remaining in the presence of 2uM inhibitor
Sequence of Mitogen-activated protein kinase 10 (Homo sapiens) (P53779 whole entry): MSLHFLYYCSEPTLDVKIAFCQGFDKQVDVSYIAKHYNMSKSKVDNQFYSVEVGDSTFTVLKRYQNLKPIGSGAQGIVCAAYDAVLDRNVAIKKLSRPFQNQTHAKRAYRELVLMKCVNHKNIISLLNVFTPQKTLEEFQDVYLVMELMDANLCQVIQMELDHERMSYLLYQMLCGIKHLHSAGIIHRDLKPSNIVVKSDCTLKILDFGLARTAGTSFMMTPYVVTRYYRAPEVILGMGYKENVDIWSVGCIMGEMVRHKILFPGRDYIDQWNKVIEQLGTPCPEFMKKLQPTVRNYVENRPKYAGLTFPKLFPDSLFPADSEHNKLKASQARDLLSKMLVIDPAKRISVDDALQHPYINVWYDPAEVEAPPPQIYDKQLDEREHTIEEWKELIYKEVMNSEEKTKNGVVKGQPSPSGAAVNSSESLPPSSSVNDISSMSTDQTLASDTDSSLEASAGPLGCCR

Rattus norvegicus = species: Rattus norvegicus; test: Percentage AMPK activity remaining in the presence of 2uM inhibitor

Sequence of Serine/threonine-protein kinase pim-2 (Q9P1W9 whole entry, looked up): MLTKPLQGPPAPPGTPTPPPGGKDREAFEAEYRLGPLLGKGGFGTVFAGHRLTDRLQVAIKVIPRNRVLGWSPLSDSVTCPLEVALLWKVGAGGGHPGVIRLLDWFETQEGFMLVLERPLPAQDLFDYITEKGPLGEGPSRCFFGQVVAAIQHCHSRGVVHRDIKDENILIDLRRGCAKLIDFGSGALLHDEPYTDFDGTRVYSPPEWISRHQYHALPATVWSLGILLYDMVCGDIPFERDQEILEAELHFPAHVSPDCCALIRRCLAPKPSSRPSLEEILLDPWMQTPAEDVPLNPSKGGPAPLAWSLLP

SMILES	Activity [1] [%]	Activity [2] [%]	Activity [3] [%]	Activity [4] [%]	Activity [5] [%]	Activity [6] [%]	Activity [7] [%]	Activity [8] [%]	Activity [9] [%]	Activity [10] [%]	Activity [11] [%]	Activity [12] [%]	Activity [13] [%]	Activity (Rattus norvegicus) [%]
Cc1ccc(-c2c(C(=O)CF)n(CCCO)c3ncnc(N)c23)cc1	85	83	86	85	92	68	79	–	–	–	–	–	–	–
Cn1cc(C2=C(c3ccc(Cl)cc3Cl)C(=O)NC2=O)c2ccccc21	–	–	–	–	–	–	–	89	106	71	88	92	88	67
